“And” between values parts separate entries of the source, which are not always exact repeats. Equal values may be shown once. Each block holds one molecule with its values, some of them ahead of it. Starred links: 1 amine or outer side, 2 acyl side, 3 side chain; linkers in the order of their positions; H or OH if unused. Non-standard residues stand in square brackets, D forms with d. Residues, ends and D or L forms follow the SMILES beside them. *: point of attachment. Adenosine(5'-uronoyl) = Nc1ncnc2c1ncn2[C@@H]1O[C@H](C(=O)*)[C@@H](O)[C@H]1O; X1 = CN(C)c1ccc2c(-c3ccc(C(=O)*)cc3C(=O)[O-])c3ccc(=[N+](C)C)cc-3oc2c1; Isoquinoline5sulfonyl = O=S(=O)(c1cccc2cnccc12)*; X2 = O=C(CCCCCNCCN[*:1])[*:2]; X3 = CN(CCCCCC(=O)[*:2])[*:1]; 4Amb = NCc1ccc(C(=O)O)cc1; Ahx = NCCCCCC(=O)O; βAla = NCCC(=O)O
Experiments:
cAPK Cα [1] = target: T1, cAPK Cα (Homo sapiens, UniProt P17612); experiment: High-throughput displacement of ARC-TAMRA from cAPK Cα, PHERAstar
Method: To determine the inhibition constant (Ki), 3-fold serial dilutions of a given inhibitor are performed analogously as for titration experiments. Before the measurement of fluorescence anisotropies the plate is rotated (400 rpm) for 10 minutes at 30° C.

cAPK Cα [2] = target: T1, cAPK Cα; experiment: Competition: displacement of ARC-TAMRA from complex with cAPK Cα, fluorescence anisotropy, LS 55; type: binding; parameters: purchased Biaffin AG
Method: A complex was created between 10 nM of ARC-TAMRA and 10 nM of cAPK Cα in 0.500 ml of buffer (50 mM HEPES, 200 mM NaCl, 0.5 g/l BSA, 5 mM DTT, 0.05% TWEEN 20, MilliQ water; pH 7.4). Different compounds were screened for binding to cAPK Cα against fixed concentrations of ARC-TAMRA and cAPK Cα (FIG. 4). 1-3 μl quantities of various dilutions of the solution of the inhibitor were added to 500 μl solution of ARC-TAMRA complex with the kinase and fluorescence anisotropy was measured after each addition of the […] after 10 min delay time.

MSK1 = MSK1 (Homo sapiens, UniProt O75582); experiment: Kinase selectivity panel, residual activity; type: biochemical; conditions: 1 μM compound, 20 μM ATP, 30° C.
Sequence of MSK1 (O75582 whole entry): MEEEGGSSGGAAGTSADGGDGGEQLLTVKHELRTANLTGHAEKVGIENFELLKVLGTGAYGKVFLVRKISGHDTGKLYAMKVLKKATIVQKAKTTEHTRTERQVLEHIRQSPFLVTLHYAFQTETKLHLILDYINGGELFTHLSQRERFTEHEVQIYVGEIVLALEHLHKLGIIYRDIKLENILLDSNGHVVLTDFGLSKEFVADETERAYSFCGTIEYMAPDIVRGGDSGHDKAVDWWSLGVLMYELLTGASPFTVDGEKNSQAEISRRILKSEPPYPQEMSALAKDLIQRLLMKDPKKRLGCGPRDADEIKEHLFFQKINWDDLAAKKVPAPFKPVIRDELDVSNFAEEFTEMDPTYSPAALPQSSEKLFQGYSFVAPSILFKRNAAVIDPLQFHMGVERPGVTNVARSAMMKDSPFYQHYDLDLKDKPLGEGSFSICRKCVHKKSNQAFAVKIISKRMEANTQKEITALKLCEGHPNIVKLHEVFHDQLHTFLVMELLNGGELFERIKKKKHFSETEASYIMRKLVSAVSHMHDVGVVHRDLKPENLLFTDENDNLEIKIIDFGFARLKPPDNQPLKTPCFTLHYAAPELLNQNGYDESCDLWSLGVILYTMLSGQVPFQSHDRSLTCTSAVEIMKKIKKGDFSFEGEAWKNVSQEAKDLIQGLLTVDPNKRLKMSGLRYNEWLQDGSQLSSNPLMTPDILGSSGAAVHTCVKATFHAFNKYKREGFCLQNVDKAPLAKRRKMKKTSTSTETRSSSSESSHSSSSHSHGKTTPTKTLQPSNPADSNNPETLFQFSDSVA
Method: The assay of protein kinases was performed at 30° C. as described previously [Davies et al., Biochem. J. 351 (2000) 95; Murray et al., Biochem. J. 384 (2004) 477].

PKBb = PKBb (Homo sapiens, UniProt P31751); experiment: Kinase selectivity panel, residual activity; type: biochemical; conditions: 1 μM compound, 50 μM ATP, 30° C.
Sequence of PKBb (P31751 whole entry): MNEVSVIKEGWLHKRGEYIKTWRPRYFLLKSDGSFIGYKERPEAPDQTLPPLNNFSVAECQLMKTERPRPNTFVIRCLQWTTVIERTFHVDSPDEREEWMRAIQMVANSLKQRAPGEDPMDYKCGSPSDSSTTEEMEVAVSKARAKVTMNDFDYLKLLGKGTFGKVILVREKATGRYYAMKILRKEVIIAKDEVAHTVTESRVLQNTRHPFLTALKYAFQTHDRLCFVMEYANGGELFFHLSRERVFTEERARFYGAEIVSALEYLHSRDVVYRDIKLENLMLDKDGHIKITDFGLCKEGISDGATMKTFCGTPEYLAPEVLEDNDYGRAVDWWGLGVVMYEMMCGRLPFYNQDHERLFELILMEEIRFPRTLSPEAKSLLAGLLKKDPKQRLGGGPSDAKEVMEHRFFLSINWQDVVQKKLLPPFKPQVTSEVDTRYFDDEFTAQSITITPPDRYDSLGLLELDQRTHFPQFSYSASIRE
Method: (§1) The assay of protein kinases was performed at 30° C. as described previously [Davies et al., Biochem. J. 351 (2000) 95; Murray et al., Biochem. J. 384 (2004) 477]. The results of the testing are expressed as the % of residual activity of the kinase in the presence of the inhibitor at 1 micromolar concentration.

PKBΔph = PKBΔph (Homo sapiens, UniProt P31749); experiment: Kinase selectivity panel, residual activity; type: biochemical; conditions: 1 μM compound, 5 μM ATP, 30° C.
Sequence of PKBΔph (P31749 whole entry, stated change not applied): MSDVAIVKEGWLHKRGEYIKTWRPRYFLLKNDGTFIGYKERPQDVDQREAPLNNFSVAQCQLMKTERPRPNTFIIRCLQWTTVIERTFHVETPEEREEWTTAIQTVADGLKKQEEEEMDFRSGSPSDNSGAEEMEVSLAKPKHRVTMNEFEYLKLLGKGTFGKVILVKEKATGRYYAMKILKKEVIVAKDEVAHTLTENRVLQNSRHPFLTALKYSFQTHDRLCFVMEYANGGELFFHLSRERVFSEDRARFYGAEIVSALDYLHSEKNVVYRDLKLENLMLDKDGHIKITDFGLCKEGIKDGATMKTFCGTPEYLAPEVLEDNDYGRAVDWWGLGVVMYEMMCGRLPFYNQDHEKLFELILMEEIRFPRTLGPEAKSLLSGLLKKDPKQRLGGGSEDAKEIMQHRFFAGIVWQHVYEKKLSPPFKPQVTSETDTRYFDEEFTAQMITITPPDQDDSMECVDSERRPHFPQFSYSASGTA
Method: as §1

PRK2 = PRK2 (Homo sapiens, UniProt Q16513); experiment: Kinase selectivity panel, residual activity; type: biochemical
Sequence of PRK2 (Q16513 whole entry): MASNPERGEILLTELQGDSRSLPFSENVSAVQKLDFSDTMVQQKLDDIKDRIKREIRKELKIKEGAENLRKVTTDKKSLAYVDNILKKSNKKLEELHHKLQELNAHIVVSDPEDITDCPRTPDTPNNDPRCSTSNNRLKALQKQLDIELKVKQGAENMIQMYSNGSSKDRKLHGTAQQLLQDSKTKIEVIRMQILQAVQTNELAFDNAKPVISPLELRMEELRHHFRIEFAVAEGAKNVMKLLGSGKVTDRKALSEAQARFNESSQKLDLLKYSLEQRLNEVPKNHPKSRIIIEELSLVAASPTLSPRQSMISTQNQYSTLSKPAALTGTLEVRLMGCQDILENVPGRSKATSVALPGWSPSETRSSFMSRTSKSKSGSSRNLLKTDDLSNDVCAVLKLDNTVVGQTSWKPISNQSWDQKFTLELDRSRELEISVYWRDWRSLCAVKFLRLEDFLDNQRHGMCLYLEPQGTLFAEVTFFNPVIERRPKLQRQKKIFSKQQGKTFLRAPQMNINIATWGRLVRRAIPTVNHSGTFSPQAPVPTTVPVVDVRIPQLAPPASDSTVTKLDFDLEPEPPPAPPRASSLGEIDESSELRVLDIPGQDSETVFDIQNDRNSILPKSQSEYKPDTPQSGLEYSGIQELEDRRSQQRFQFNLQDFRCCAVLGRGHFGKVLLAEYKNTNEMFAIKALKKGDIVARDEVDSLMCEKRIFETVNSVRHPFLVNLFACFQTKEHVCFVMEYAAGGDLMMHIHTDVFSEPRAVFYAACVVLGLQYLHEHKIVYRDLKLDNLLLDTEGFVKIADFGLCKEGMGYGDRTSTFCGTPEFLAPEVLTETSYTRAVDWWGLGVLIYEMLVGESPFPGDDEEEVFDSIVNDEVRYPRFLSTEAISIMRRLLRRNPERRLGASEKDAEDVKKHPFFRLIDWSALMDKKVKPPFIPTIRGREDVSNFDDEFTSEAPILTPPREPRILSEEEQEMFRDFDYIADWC
Method: as §1

cAPK Cα [3] = target: T1, cAPK Cα; experiment: Titration of ARC-TAMRA with cAPK Cα, PHERAstar plate reader, 384-well; type: binding; parameters: purchased Biaffin AG; conditions: 2 nM and 20 nM ARC-TAMRA, 20 μl, 30° C., read-out: Kd of ARC-TAMRA complex with cAPK Cα
Method: Titrations of 2 nM and 20 nM ARC-TAMRA solutions were performed with cAPK C[…]. 2-fold serial dilutions of the kinase were used leading to concentrations of the kinase between 100 nM and 0.05 nM and 20 μl reaction volumes on a 384-well microtiter plate. […] Optical conditions for the measurements were set as the following: 540 nm excitation and 590 nm emission (20 nm bandpass filters). To find the value of Kd, titration curves were analyzed by a scientific curve-fitting program, e.g., GraphPad Prism 4.03, with nonlinear regression, using the function below:
[formula] where A is measured anisotropy, Af—anisotropy value for free ARC-Photo, Ab—anisotropy value for bound ARC-Photo, Lt—total concentration of ARC-Photo, Rt—nominal total concentration of enzyme, k—concentration of active enzyme divided by nominal concentration of enzyme, Kd—dissociation constant for ARC-Photo complex with enzyme. […] Determination of the Inhibition Constants (Ki)

cAPK Cα [4] = target: T1, cAPK Cα; experiment: Titration of ARC-TAMRA with cAPK Cα, fluorescence anisotropy, LS 55 spectrometer 0.5 ml cell; type: binding; parameters: purchased Biaffin AG; conditions: LS 55, 0.5 ml quartz cell, read-out: Kd of ARC-TAMRA complex with cAPK Cα
Method: The change in fluorescence anisotropy was plotted against the kinase concentration [cAPK Cα]. The data were fitted to the equation: […]
The binding of the fluorescent probe ARC-TAMRA to the kinase cAPK Cα (Biaffin) was studied at 10 nM or 2 nM ARC-TAMRA concentration (excitation at 557 nm, slitwidth 10 nm; emission at 585 nm, slitwidth 10 nm, detection of fluorescence polarization).
10 nM solution of ARC-TAMRA in 500 μl of buffer (50 mM HEPES, 200 mM NaCl, 0.5 g/l BSA, 5 mM DTT, 0.05% TWEEN 20, MilliQ water; pH 7.4) was titrated with the solution of kinase cAPK Cα (Biaffin). 1-3 μl quantities of various dilutions of kinase solution were added to 500 μl of 2.0 nM or 10.0 nM solution of ARC-TAMRA, and fluorescence anisotropy was measured after each addition of the kinase solution after 10 min delay time. The change in fluorescence anisotropy was plotted against the kinase concentration [cAPK Cα]. The data were fitted to the equation: […]

[5] = target: Rho-associated kinase ROCK II (Homo sapiens, UniProt O75116); experiment: Titration of ARC-TAMRA with ROCK II, PHERAstar; type: binding; conditions: 2 nM and 20 nM ARC-TAMRA, read-out: Kd of ARC-TAMRA-ROCK II complex
Sequence of Rho-associated kinase ROCK II (O75116 whole entry): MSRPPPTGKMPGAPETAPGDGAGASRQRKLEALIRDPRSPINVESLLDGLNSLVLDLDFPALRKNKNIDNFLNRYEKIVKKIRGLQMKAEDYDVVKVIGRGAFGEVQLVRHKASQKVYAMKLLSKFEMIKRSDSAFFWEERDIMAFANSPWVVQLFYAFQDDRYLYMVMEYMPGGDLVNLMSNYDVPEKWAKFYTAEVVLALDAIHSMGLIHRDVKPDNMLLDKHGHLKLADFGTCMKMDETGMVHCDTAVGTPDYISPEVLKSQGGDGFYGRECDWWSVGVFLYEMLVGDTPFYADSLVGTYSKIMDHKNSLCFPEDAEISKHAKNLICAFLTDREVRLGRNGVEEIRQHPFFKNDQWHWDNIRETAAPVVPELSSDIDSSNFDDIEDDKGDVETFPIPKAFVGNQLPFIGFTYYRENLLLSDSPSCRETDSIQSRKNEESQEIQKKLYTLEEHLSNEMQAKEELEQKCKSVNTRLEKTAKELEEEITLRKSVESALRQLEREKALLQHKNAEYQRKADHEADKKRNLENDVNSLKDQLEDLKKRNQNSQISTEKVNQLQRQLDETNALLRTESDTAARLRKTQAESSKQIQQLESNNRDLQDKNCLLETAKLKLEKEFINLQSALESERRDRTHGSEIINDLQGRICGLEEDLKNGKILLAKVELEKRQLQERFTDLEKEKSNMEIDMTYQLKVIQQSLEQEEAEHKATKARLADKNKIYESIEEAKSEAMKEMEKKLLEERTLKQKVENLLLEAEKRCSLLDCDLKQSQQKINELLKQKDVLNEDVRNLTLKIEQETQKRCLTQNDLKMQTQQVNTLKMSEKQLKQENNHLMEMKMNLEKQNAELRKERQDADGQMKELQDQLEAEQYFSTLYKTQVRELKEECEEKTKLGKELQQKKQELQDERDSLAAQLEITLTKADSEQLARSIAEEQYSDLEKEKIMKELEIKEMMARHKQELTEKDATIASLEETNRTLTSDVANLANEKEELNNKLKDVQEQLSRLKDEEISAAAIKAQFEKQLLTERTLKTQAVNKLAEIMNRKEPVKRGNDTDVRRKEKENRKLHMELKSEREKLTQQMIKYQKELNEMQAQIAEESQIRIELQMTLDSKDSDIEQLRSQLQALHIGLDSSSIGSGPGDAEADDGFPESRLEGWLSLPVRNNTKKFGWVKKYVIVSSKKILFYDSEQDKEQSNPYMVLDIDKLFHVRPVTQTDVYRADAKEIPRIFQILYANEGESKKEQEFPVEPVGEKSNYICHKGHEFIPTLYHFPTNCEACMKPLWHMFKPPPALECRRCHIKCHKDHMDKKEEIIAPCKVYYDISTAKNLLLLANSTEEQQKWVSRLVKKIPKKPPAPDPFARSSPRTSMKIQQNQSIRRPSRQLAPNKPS
Method: Experiments were performed in the wells of 384-well microtiter plates and with the measurements of fluorescence anisotropy with the platereader PHERAStar according to the protocols described in the Example 7.

cAPK Cα [6] = target: T1, cAPK Cα; experiment: Inhibition of TAMRA-kemptide phosphorylation catalyzed by cAPK Cα (TLC, fluorescence imaging); type: biochemical; parameters: purchased Biaffin AG
Method: (§2) The IC50 values of the inhibitors were measured as previously described. [Viht et al., Anal. Biochem. 340 (2005) 165] The inhibitors in various concentrations were incubated at 30° C. in Hepes buffer (50 mM, pH=7.5) containing cAPK Cα (Biaffin AG; about 1 nM), TAMRA-kemptide (10, 30 or 100 μM), ATP (100 μM or 1 mM), magnesium acetate (10 mM) and bovine serum albumin ([…] 0.2 mg/mL). ATP was added last to initiate the phosphorylation reaction. At fixed time points, the reaction was stopped by 20-fold dilution with 75 mM phosphoric acid and obtained solutions were analyzed by normal phase TLC (without fluorescence indicator, eluted with 1-butanol/pyridine/acetic acid/water, 15/10/12/12 by volume). The visualization and quantification of the fluorescent spots were carried out by fluorescence imaging. Data were processed with Graphpad Prism software (version 4, GraphPad).

cAPK Cα [7] = target: T1, cAPK Cα; experiment: Inhibition of cAPK Cα-catalysed phosphorylation of TAMRA-kemptide (TLC/fluorescence imaging); type: biochemical; parameters: purchased Biaffin AG; conditions: single site-targeted constituents of the conjugate
Method: as §2

[8] = 100 μM ATP and 30 μM TAMRA-kemptide, read-out: IC50

- Ki (cAPK Cα [1]; read-out: Ki (displacement of ARC-TAMRA), 2 nM ARC-TAMRA, 3 nM cAPK Cα, PHERAstar, Kd 0.4 nM used): 0.0005 µM
Molecule: RIIa: regulatory subunit of cAMP-dependent protein kinase RIIα, substrate protein-competitive inhibitor

Molecule: N=C(N)NCCC[C@H](NC(=O)[C@H](CCCNC(=N)N)NC(=O)[C@H](CCCNC(=N)N)NC(=O)[C@H](CCCNC(=N)N)NC(=O)[C@H](CCCNC(=N)N)NC(=O)[C@H](CCCNC(=N)N)NC(=O)CCCCCNC(=O)[C@H]1O[C@@H](n2cnc3c(N)ncnc32)[C@H](O)[C@@H]1O)C(N)=O [Compound 3, AdcAhx(L-Arg)6-NH2]
- Ki (cAPK Cα [1]): 0.021 µM
- IC50 (cAPK Cα [2]; 10 nM ARC-TAMRA, 10 nM cAPK Cα): 1.3 µM
- Ki (cAPK Cα [2]; read-out: Ki (competitive binding)): 0.11 µM

Molecule: N=C(N)NCCC[C@@H](NC(=O)[C@@H](CCCNC(=N)N)NC(=O)[C@@H](CCCNC(=N)N)NC(=O)[C@@H](CCCNC(=N)N)NC(=O)[C@@H](CCCNC(=N)N)NC(=O)[C@@H](CCCNC(=N)N)NC(=O)CCCCCNCCNS(=O)(=O)c1cccc2cnccc12)C(N)=O [Compound 26, H9-(CH2)5C(O)(D-Arg)6-NH2]
- remaining activity at 1 µM (MSK1): ≤ 3%
- remaining activity at 1 µM (PKBb): ≤ 3%
- residual activity (PKBΔph): ≤ 3%
- remaining activity at 1 µM (PRK2): ≤ 3%

Molecule: CN(C)c1ccc2c(-c3ccc(C(=O)NCCCC[C@@H](NC(=O)[C@@H](CCCNC(=N)N)NC(=O)[C@@H](CCCNC(=N)N)NC(=O)[C@@H](CCCNC(=N)N)NC(=O)[C@@H](CCCNC(=N)N)NC(=O)[C@@H](CCCNC(=N)N)NC(=O)[C@@H](CCCNC(=N)N)NC(=O)CCCCCNC(=O)[C@H]4O[C@@H](n5cnc6c(N)ncnc65)[C@H](O)[C@@H]4O)C(N)=O)cc3C(=O)[O-])c3ccc(=[N+](C)C)cc-3oc2c1 [ARC-TAMRA, AdcAhx(D-Arg)6-D-Lys(5-TAMRA)-C(O)NH2] ({Adenosine(5'-uronoyl)-Ahx}-[dR][dR][dR][dR][dR][dR][dK](X1)-NH2)
- Kd (cAPK Cα [3]): 0.0004 µM
- Kd (cAPK Cα [4]; 2 nM ARC-TAMRA): 0.0011 µM
- Kd (cAPK Cα [4]; 10 nM ARC-TAMRA): 0.001 µM and 0.00094 µM
- Kd [5]: 0.004 µM
- IC50 (cAPK Cα [6]; read-out: IC50 of inhibition towards cAPK): 0.0062 µM

- IC50 (cAPK Cα [6]; [8]): 3.7 ± 0.3 µM
Molecule: NCCNS(=O)(=O)c1cccc2cnccc12 [Compound H9, 5-isoquinolinesulfonyl ethylenediamine, reference compound]

Molecule: Nc1ncnc2c1ncn2[C@@H]1O[C@H](CO)[C@@H](O)[C@H]1O [Ado, adenosine]
- inhibitory potency (cAPK Cα [7]): submillimolar

- IC50 (cAPK Cα [6]; [8]): ~3000 µM
Molecule: CC(=O)N[C@H](CCCNC(=N)N)C(=O)N[C@H](CCCNC(=N)N)C(=O)N[C@H](CCCNC(=N)N)C(=O)N[C@H](CCCNC(=N)N)C(=O)N[C@H](CCCNC(=N)N)C(=O)N[C@H](CCCNC(=N)N)C(=O)N[C@H](CCCCN)C(N)=O [Compound 27, Ac-(D-Arg)6-D-Lys-NH2] (Ac-[dR][dR][dR][dR][dR][dR][dK]-NH2)

Molecule: N=C(N)NCCC[C@@H](NC(=O)[C@@H](CCCNC(=N)N)NC(=O)[C@@H](CCCNC(=N)N)NC(=O)[C@@H](CCCNC(=N)N)NC(=O)CCCCCNC(=O)[C@H]1O[C@@H](n2cnc3c(N)ncnc32)[C@H](O)[C@@H]1O)C(N)=O [Compound 4] ({Adenosine(5'-uronoyl)-Ahx}-[dR][dR][dR][dR]-NH2)
- IC50 (cAPK Cα [6]; [8]): 0.33 ± 0.03 µM

Molecule: CN(CCCCCC(=O)N[C@@H](CCCNC(=N)N)C(=O)N[C@@H](CCCNC(=N)N)C(=O)N[C@@H](CCCNC(=N)N)C(=O)N[C@@H](CCCNC(=N)N)C(N)=O)C(=O)[C@H]1O[C@@H](n2cnc3c(N)ncnc32)[C@H](O)[C@@H]1O [Compound 6] ({Adenosine(5'-uronoyl)}-[X3]RRRR-NH2)
- IC50 (cAPK Cα [6]; [8]): 2.6 ± 0.6 µM

Molecule: N=C(N)NCCC[C@H](NC(=O)[C@H](CCCNC(=N)N)NC(=O)[C@H](CCCNC(=N)N)NC(=O)[C@H](CCCNC(=N)N)NC(=O)CCCCCNC(=O)[C@H]1O[C@@H](n2cnc3c(N)ncnc32)[C@H](O)[C@@H]1O)C(N)=O [Compound 2] ({Adenosine(5'-uronoyl)-Ahx}-RRRR-NH2)
- IC50 (cAPK Cα [6]; [8]): 2 ± 0.3 µM

Molecule: N=C(N)NCCC[C@H](NC(=O)[C@H](CCCNC(=N)N)NC(=O)[C@H](CCCNC(=N)N)NC(=O)[C@H](CCCNC(=N)N)NC(=O)CCNC(=O)[C@H](Cc1ccccc1)NC(=O)[C@H]1O[C@@H](n2cnc3c(N)ncnc32)[C@H](O)[C@@H]1O)C(N)=O [Compound 8] ({Adenosine(5'-uronoyl)}-F[βAla]RRRR-NH2)
- IC50 (cAPK Cα [6]; [8]): 3.7 ± 0.3 µM

Molecule: Nc1ncnc2c1ncn2[C@@H]1O[C@H](CO)[C@@H](O)[C@H]1O [Ado, adenosine, reference compound]
- IC50 (cAPK Cα [6]; [8]): 350 ± 40 µM

Molecule: N=C(N)NCCC[C@H](NC(=O)[C@H](CCCNC(=N)N)NC(=O)[C@H](CCCNC(=N)N)NC(=O)[C@H](CCCNC(=N)N)NC(=O)CCCCCNCCNS(=O)(=O)c1cccc2cnccc12)C(N)=O [Compound 25] (Isoquinoline5sulfonyl-[X2]RRRR-NH2)
- IC50 (cAPK Cα [6]; second value in parentheses, condition not stated in table (method: ATP 100 μM or 1 mM), read-out: IC50 (μM), value in parentheses (converted)): 0.22 µM

Molecule: N=C(N)NCCC[C@H](NC(=O)[C@H](CCCNC(=N)N)NC(=O)[C@H](CCCNC(=N)N)NC(=O)[C@H](CCCNC(=N)N)NC(=O)c1ccc(CNC(=O)[C@H]2O[C@@H](n3cnc4c(N)ncnc43)[C@H](O)[C@@H]2O)cc1)C(N)=O [Compound 7] ({Adenosine(5'-uronoyl)-4Amb}-RRRR-NH2)
- IC50 (cAPK Cα [6]; [8]): 23 ± 4 µM

Source: patent US8158376B2, “Bisubstrate fluorescent probe binding to protein kinases” (University of Tartu, priority 2006, dated 2012)
